# US8580812B2, “Heteroaryl amide analogues as P2X7 antagonists” (H. Lundbeck A/S, priority 2007, dated 2013)
# Biological target: T1, P2X7 (Homo sapiens, UniProt Q99572)
# T1 construct: host or cells: SH-SY5Y
# T1 sequence (Q99572 1-595): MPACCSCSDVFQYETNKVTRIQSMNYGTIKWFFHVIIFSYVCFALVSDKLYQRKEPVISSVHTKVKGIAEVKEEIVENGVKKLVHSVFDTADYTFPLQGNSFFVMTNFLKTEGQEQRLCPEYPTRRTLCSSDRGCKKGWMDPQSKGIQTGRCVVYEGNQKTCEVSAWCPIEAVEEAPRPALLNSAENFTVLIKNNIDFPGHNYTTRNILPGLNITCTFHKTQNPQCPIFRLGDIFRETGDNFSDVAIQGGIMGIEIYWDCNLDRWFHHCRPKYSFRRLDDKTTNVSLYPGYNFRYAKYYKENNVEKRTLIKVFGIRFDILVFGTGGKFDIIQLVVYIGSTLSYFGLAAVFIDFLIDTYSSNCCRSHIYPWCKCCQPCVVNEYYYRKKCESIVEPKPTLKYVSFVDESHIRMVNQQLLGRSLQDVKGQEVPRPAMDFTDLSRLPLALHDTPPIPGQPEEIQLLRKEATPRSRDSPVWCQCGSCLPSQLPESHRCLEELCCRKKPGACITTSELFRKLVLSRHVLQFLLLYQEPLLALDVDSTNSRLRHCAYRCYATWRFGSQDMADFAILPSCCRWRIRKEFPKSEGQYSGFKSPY
# Test: High Throughput P2X7 Calcium Mobilization Assay (Example 4A), antagonist activity
# Format: cell-based
# Settings: SH-SY5Y cells, 50% decrease in fluorescence response of cells exposed to 80 μM BzATP
# Method: A. High Throughput P2X7 Calcium Mobilization Assay
# SH-SY5Y cells, ATCC Number CRL-2266, (American Type Culture Collection, Manassas, Va.) are cultured under DMEM/High medium supplemented with 10% FBS, and 10 mM HEPES (Invitrogen Corp., Carlsbad, Calif.) in 5% CO2 and at 37° C. One day prior to the experiment, cells are plated at a density of 100,000 cells/well in a 96 well black/clear TC plate (Corning® Costar®, Sigma-Aldrich Co., St. Louis, Mo.). At the beginning of the experiment, the culture medium is removed and cells are incubated with 50 μL of 2.3 μM Fluo-4 AM dye (Invitrogen Corp.) in the assay solution (5 mM KCl, 9.6 mM NaH2PO4.H2O, 25 mM HEPES, 280 mM Sucrose, 5 mM Glucose, and 0.5 mM CaCl2; pH is adjusted to 7.4 with NaOH) for an hour at 37° C. After one hour dye incubation, wells are rinsed once with 50 μL assay solution, and are then incubated for an hour at room temperature with 100 μL assay solution containing the test compound. The final concentration of test compound generally ranges from 1 to 2500 nM; for positive control cells, no test compound is added. After the one hour incubation, plates are transferred to a FLIPR^TETRA instrument (Molecular Devices, Sunnyvale, Calif.) for calcium mobilization analysis.
# For determination of antagonist activity, 50 μL of P2X7 agonist (2′(3′)-O-(4-benzoyl-benzoyl)adenosine 5′-triphosephate (BzATP; Sigma-Aldrich) in the assay solution is transferred using the FLIPR into the plate, such that the final agonist concentration is 80 μM (about EC50). In negative control cells, 50 μL of assay solution without agonist is added at this stage. The peak fluorescence signal over a 2 minute period is then measured.
# First, the average maximum relative fluorescent unit (RFU) response from the negative control wells (no agonist) is subtracted from the maximum response detected for each of the other experimental wells. Second, average maximum RFU response is calculated for the positive control wells (agonist wells). Then, percent inhibition for each compound tested is calculated using the equation: Percent Inhibition=100−100×(Peak Signal in Test Cells/Peak Signal in Control Cells) The % inhibition data is plotted as a function of test compound concentration and test compound IC50 is determined using, for example, KALEIDAGRAPH software (Synergy Software, Reading, Pa.) best fit of the data to the equation: y=m1*(1/(1+(m2/m0)^m3)) where y is the percent inhibition, m0 is […], m1 is the maximum RFU, m2 corresponds to the test compound IC50 (the concentration required to provide a 50% decrease, relative to the response observed in the presence of agonist and without antagonist) and m3 is the Hill coefficient.
row,Compound,IC50 [nM]
1,"N[C@@H]1CCN(C(=O)c2cc3c(NC(=O)CC45CC6CC(CC(C6)C4)C5)cccn3n2)C1 [Compound 99, 2-adamantan-1-yl-N-(2-{[(3R)-3-aminopyrrolidin-1-yl]carbonyl}pyrazolo [1,5-a]pyridin-4-yl)acetamide]",≤ 2000
2,"CN(Cc1ccc(F)cc1)Cc1cc2c(C(=O)NCC34CC5CC(CC(C5)C3)C4)cccn2n1 [Compound 70, N-(adamantan-1-ylmethyl)-2-{[(4-fluorobenzyl)(methyl)amino]methyl}pyrazolo [1,5-a]pyridine-4-carboxamide]",≤ 2000
3,"O=C(NCC1(c2ccc(Cl)cc2)CCCCC1)c1cccn2nc(C(=O)N3CCn4cncc4C3)cc12 [Compound 83, N-{[1-(4-chlorophenyl)cyclohex-yl]methyl}-2-(5,6-dihydroimidazo[1,5-a]pyrazin-7(8H)-ylcarbonyl)pyrazolo [1,5-a]pyridine-4-carboxamide]",≤ 2000
4,"O=C1CN(C(=O)c2cc3c(C(=O)NCC45CC6CC(CC(C6)C4)C5)cccn3n2)CCN1 [Compound 32, N-(adamantan-1-ylmethyl)-2-[(3-oxopiperazin-1-yl)carbonyl]pyrazolo [1,5-a]pyridine-4-carboxamide]",≤ 2000
5,"O=C(NCC12CC3CC(CC(C3)C1)C2)c1cccn2nc(C(=O)N3CCn4cncc4C3)cc12 [Compound 20, N-(adamantan-1-ylmethyl)-2-(5,6-dihydroimidazo[1,5-a]pyrazin-7(8H)-ylcarbonyl)pyrazolo [1,5-a]pyridine-4-carboxamide]",≤ 2000
6,"O=C(NC1CCS(=O)(=O)C1)c1cc2c(C(=O)NCC34CC5CC(CC(C5)C3)C4)cccn2n1 (stereo not shown) [Compound 82, 4-N-(adamantan-1-ylmethyl)-2-N-(1,1-dioxidotetrahydrothio-phen-3-yl)pyrazolo[1,5-a]pyridine-2,4-dicarboxamide]",≤ 2000
7,"CN(Cc1ccccn1)C(=O)c1cc2c(C(=O)NCC34CC5CC(CC(C5)C3)C4)cccn2n1 [Compound 50, 4-N-(adamantan-1-ylmethyl)-2-N-methyl-2-N-(pyridin-2-ylmethyl)pyrazolo[1,5-a]pyridine-2,4-dicarboxamide]",≤ 2000
8,"CN(Cc1ccccc1F)C(=O)c1cc2c(C(=O)NCC34CC5CC(CC(C5)C3)C4)cccn2n1 [Compound 65, 4-N-(adamantan-1-ylmethyl)-2-N-(2-fluorobenzyl)-2-N-methylpyrazolo[1,5-a]pyridine-2,4-dicarboxamide]",≤ 2000
9,"CC(C)CC(CNC(=O)c1cccn2nc(C(=O)N3CCOCC3)cc12)c1ccc(C(F)(F)F)cc1 (stereo not shown) [Compound 87, N-{4-methyl-2-[4-(trifluoromethyl)phenyl]pentyl}-2-(morpholin-4-ylcarbonyl)pyrazolo [1,5-a]pyridine-4-carboxamide]",≤ 2000
10,"CN(C(=O)c1cc2c(C(=O)NCC34CC5CC(CC(C5)C3)C4)cccn2n1)c1ccccn1 [Compound 19, 4-N-(adamantan-1-ylmethyl)-2-N-methyl-2-N-pyridin-2-ylpyrazolo[1,5-a]pyridine-2,4-dicarboxamide]",≤ 2000
11,"CN(Cc1cccc(F)c1)C(=O)c1cc2c(C(=O)NCC34CC5CC(CC(C5)C3)C4)cccn2n1 [Compound 66, 4-N-(adamantan-1-ylmethyl)-2-N-(3-fluorobenzyl)-2-N-methylpyrazolo[1,5-a]pyridine-2,4-dicarboxamide]",≤ 2000
12,"O=C(NCC1(c2ccc(Cl)cc2)CCCCC1)c1cccn2nc(C(=O)N3CCOCC3)cc12 [Compound 84, N-{[1-(4-chlorophenyl)cyclohex-yl]methyl}-2-(morpholin-4-ylcarbonyl)pyrazolo [1,5-a]pyridine-4-carboxamide]",≤ 2000
13,"CN(Cc1cccnc1)Cc1cc2c(C(=O)NCC34CC5CC(CC(C5)C3)C4)cccn2n1 [Compound 54, N-(adamantan-1-ylmethyl)-2-{[methyl(pyridin-3-ylmethyl)amino]methyl} pyrazolo[1,5-a]pyridine-4-carboxamide]",≤ 2000
14,"N#Cc1ccc(C(=O)c2ccc3c(C(=O)NCC45CC6CC(CC(C6)C4)C5)cccn23)cc1 [Compound 109, N-(adamantan-1-ylmethyl)-3-(4-cyanobenzoyl)indolizine-8-carboxamide]",≤ 2000
15,"NC(=O)c1ccc(-c2cc3c(C(=O)NCC45CC6CC(CC(C6)C4)C5)cccn3c2)cc1 [Compound 112, N-(adamantan-1-ylmethyl)-2-(4-carbamoylphenyl) indolizine-8-carboxamide]",≤ 2000
16,"Cn1ncc2c1CCN(C(=O)c1cc3c(C(=O)NCC45CC6CC(CC(C6)C4)C5)cccn3n1)C2 [Compound 34, N-(adamantan-1-ylmethyl)-2-[(1-methyl-1,4,6,7-tetrahydro-5H-pyrazolo[4,3-c]pyridin-5-yl)carbonyl]pyrazolo [1,5-a]pyridine-4-carboxamide]",≤ 2000
17,"CC(C)CC(CNC(=O)c1cccn2nc(C(=O)N3CCOCC3)cc12)c1ccc(Cl)cc1 (stereo not shown) [Compound 91, N-[2-(4-chlorophenyl)-4-methylpentyl]-2-(morpholin-4-ylcarbonyl)pyrazolo [1,5-a]pyridine-4-carboxamide]",≤ 2000
18,"CN(Cc1cnn(C)c1)C(=O)c1cc2c(C(=O)NCC34CC5CC(CC(C5)C3)C4)cccn2n1 [Compound 49, 4-N-(adamantan-1-ylmethyl)-2-N-methyl-2-N-[(1-methyl-1H-pyrazol-4-yl)methyl]pyrazolo[1,5-a]pyridine-2,4-dicarboxamide]",≤ 2000
19,"2-{[(3R)-3- aminopyrrolidin-1- yl]carbonyl}-N-[4- methyl-2-(4- methylphenyl)pentyl] pyrazolo[1,5-a]pyridine- 4-carboxamide [Compound 73]",≤ 2000
20,"CN(Cc1ccccn1)Cc1cc2c(C(=O)NCC34CC5CC(CC(C5)C3)C4)cccn2n1 [Compound 53, N-(adamantan-1-ylmethyl)-2-{[methyl(pyridin-2-ylmethyl)amino]methyl} pyrazolo[1,5-a]pyridine-4-carboxamide]",≤ 2000
21,"CC(CC(=O)O)c1cc2c(C(=O)NCC34CC5CC(CC(C5)C3)C4)cccn2n1 (stereo not shown) [Compound 105, 3-{4-[(adamantan-1-ylmethyl)carbamoyl]pyrazolo[1,5-a]pyridin-2-yl}butanoic acid]",≤ 2000
22,"COCCCNC(=O)c1cc2c(C(=O)NCC34CC5CC(CC(C5)C3)C4)cccn2n1 [Compound 38, 4-N-(adamantan-1-ylmethyl)-2-N-(3-methoxypropyl)pyrazolo [1,5-a]pyridine-2,4-dicarboxamide]",≤ 2000
23,"Cc1nc2c(c(=O)[nH]1)CN(C(=O)c1cc3c(C(=O)NCC45CC6CC(CC(C6)C4)C5)cccn3n1)CC2 [Compound 30, N-(adamantan-1-ylmethyl)-2-[(2-methyl-4-oxo-3,5,7,8-tetrahydropyrido[4,3-d]pyrimidin-6(4H)-yl)carbonyl]pyrazolo [1,5-a]pyridine-4-carboxamide]",≤ 2000
24,"CC(C)CC(CNC(=O)c1cccn2nc(C(=O)N(C)CCF)cc12)c1ccc(C(F)(F)F)cc1 (stereo not shown) [Compound 86, 2-N-(2-fluoroethyl)-2-N-methyl-4-N-{4-methyl-2-[4-(trifluoromethyl)phenyl]pentyl}pyrazolo[1,5-a]pyridine-2,4-dicarboxamide]",≤ 2000
25,"O=C(NCC12CC3CC(CC(C3)C1)C2)c1cccn2nc(CC(=O)N3CCOCC3)cc12 [Compound 25, N-(adamantan-1-ylmethyl)-2-(2-morpholin-4-yl-2-oxoethyl)pyrazolo[1,5-a]pyridine-4-carboxamide]",≤ 2000
